PubChem BioAssay AID1963863 (Molecular Pharmacology Branch, DTP, NCI, 2024)

System: 931267-113-T-J1-PDC KRAS spheroid with HUVEC/MSC, viability
Assay: Anticancer human tumor 931267-113-T-J1-PDC patient-derived colon adenocarcinoma cell line growth inhibition [KRAS2]
Conditions: for IC50: curve of first compound; for viability, T/C: stronger effect = lower value
In short: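 Combination screen of spheroid viability in tumor-cell co-cultures with endothelial (HUVEC) and mesenchymal stem cell stroma. Each agent was tested in half-log dilutions, topping at clinical Cmax or at 10 microM without a known Cmax.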

[1] = second compound 0.1 µM, first compound 0.0316 µM
[2] = second compound 0.1 µM, first compound 0.1 µM
[3] = second compound 0.316 µM, first compound 0.0316 µM
[4] = second compound 0.316 µM, first compound 0.1 µM
[5] = second compound 1 µM, first compound 0.0316 µM
[6] = second compound 1 µM, first compound 0.1 µM
[7] = second compound 3.16 µM, first compound 0.0316 µM
[8] = second compound 3.16 µM, first compound 0.1 µM
[9] = second compound 10 µM, first compound 0.0316 µM
[10] = second compound 10 µM, first compound 0.1 µM
[11] = second compound 0.1 µM, first compound 0.316 µM
[12] = second compound 0.1 µM, first compound 1 µM
[13] = second compound 0.1 µM, first compound 3.16 µM
[14] = second compound 0.1 µM, first compound 10 µM
[15] = second compound 0.316 µM, first compound 0.316 µM
[16] = second compound 0.316 µM, first compound 1 µM
[17] = second compound 0.316 µM, first compound 3.16 µM
[18] = second compound 0.316 µM, first compound 10 µM
[19] = second compound 1 µM, first compound 0.316 µM
[20] = second compound 1 µM, first compound 1 µM
[21] = second compound 1 µM, first compound 3.16 µM
[22] = second compound 1 µM, first compound 10 µM
[23] = second compound 3.16 µM, first compound 0.316 µM
[24] = second compound 3.16 µM, first compound 1 µM
[25] = second compound 3.16 µM, first compound 3.16 µM
[26] = second compound 3.16 µM, first compound 10 µM
[27] = second compound 10 µM, first compound 0.316 µM
[28] = second compound 10 µM, first compound 1 µM
[29] = second compound 10 µM, first compound 3.16 µM
[30] = second compound 10 µM, first compound 10 µM
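Also: compound exposure lasted 7 days before the readout.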
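For viability, T/C in this document: 100% = DMSO vehicle control viability.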

Row | Structure (SMILES) | IC50 (second compound 0.1 µM) | IC50 (second compound 0.316 µM) | IC50 (second compound 1 µM) | IC50 (second compound 3.16 µM) | IC50 (second compound 10 µM) | viability, T/C [1] | viability, T/C [2] | viability, T/C [3] | viability, T/C [4] | viability, T/C [5] | viability, T/C [6] | viability, T/C [7] | viability, T/C [8] | viability, T/C [9] | viability, T/C [10] | viability, T/C [11] | viability, T/C [12] | viability, T/C [13] | viability, T/C [14] | viability, T/C [15] | other results
1 | CN(C)C/C=C/C(=O)Nc1cc2c(Nc3ccc(F)c(Cl)c3)ncnc2cc1O[C@H]1CCOC1 + CC1OCC2(CCN(c3cnc(Sc4ccnc(N)c4Cl)c(N)n3)CC2)C1N | > 100 nM | > 100 nM | > 100 nM | < 0.316 nM | > 100 nM | 84.6% | 69% | 67.4% | 80.4% | 93.5% | 90.8% | 57.7% | 49.4% | 97.1% | 93.7% | – | – | – | – | – | viability, T/C (second compound 0.1 µM, first compound 0.000316 µM): 80.6%; viability, T/C (second compound 0.1 µM, first compound 0.001 µM): 77.1%; viability, T/C (second compound 0.1 µM, first compound 0.00316 µM): 58.5%; viability, T/C (second compound 0.1 µM, first compound 0.01 µM): 73.5%; viability, T/C (second compound 0.316 µM, first compound 0.000316 µM): 66.8%; viability, T/C (second compound 0.316 µM, first compound 0.001 µM): 70%; viability, T/C (second compound 0.316 µM, first compound 0.00316 µM): 65.5%; viability, T/C (second compound 0.316 µM, first compound 0.01 µM): 62.6%; viability, T/C (second compound 1 µM, first compound 0.000316 µM): 84.4%; viability, T/C (second compound 1 µM, first compound 0.001 µM): 77.4%; viability, T/C (second compound 1 µM, first compound 0.00316 µM): 77%; viability, T/C (second compound 1 µM, first compound 0.01 µM): 71.4%; viability, T/C (second compound 3.16 µM, first compound 0.000316 µM): 34.6%; viability, T/C (second compound 3.16 µM, first compound 0.001 µM): 48.8%; viability, T/C (second compound 3.16 µM, first compound 0.00316 µM): 49.1%; viability, T/C (second compound 3.16 µM, first compound 0.01 µM): 49.6%; viability, T/C (second compound 10 µM, first compound 0.000316 µM): 90.2%; viability, T/C (second compound 10 µM, first compound 0.001 µM): 71.6%; viability, T/C (second compound 10 µM, first compound 0.00316 µM): 68.4%; viability, T/C (second compound 10 µM, first compound 0.01 µM): 71.5%
2 | COC(=O)c1ccc2c(C(=Nc3ccc(N(C)C(=O)CN4CCN(C)CC4)cc3)c3ccccc3)c(O)[nH]c2c1 + CC1OCC2(CCN(c3cnc(Sc4ccnc(N)c4Cl)c(N)n3)CC2)C1N | 700 nM | 251 nM | < 31.6 nM | < 31.6 nM | < 31.6 nM | 69.4% | 68.6% | 63.5% | 67.5% | 51.2% | 43.6% | 48.1% | 37% | 37.6% | 32.4% | 57.1% | 44.4% | 0.37% | 0.35% | 38.7% | viability, T/C [16]: 34.3%; viability, T/C [17]: 0.32%; viability, T/C [18]: 0.28%; viability, T/C [19]: 44%; viability, T/C [20]: 4.05%; viability, T/C [21]: 0.33%; viability, T/C [22]: 0.32%; viability, T/C [23]: 25%; viability, T/C [24]: 2.45%; viability, T/C [25]: 0.48%; viability, T/C [26]: 0.38%; viability, T/C [27]: 13.2%; viability, T/C [28]: 0.77%; viability, T/C [29]: 0.35%; viability, T/C [30]: 0.45%
3 | O=C(c1cc(Cc2n[nH]c(=O)c3ccccc23)ccc1F)N1CCN(C(=O)C2CC2)CC1 + CC1OCC2(CCN(c3cnc(Sc4ccnc(N)c4Cl)c(N)n3)CC2)C1N | > 10000 nM | > 10000 nM | > 10000 nM | > 10000 nM | 3160 nM | 72.8% | 70.8% | 64.2% | 72.7% | 86.6% | 89.5% | 56.6% | 48% | 59.9% | 60.2% | 72.9% | 68.4% | 81.5% | 73.5% | 59.1% | viability, T/C [16]: 66.9%; viability, T/C [17]: 54.8%; viability, T/C [18]: 62.4%; viability, T/C [19]: 89.1%; viability, T/C [20]: 86%; viability, T/C [21]: 73.3%; viability, T/C [22]: 89.1%; viability, T/C [23]: 52.6%; viability, T/C [24]: 64.6%; viability, T/C [25]: 56.4%; viability, T/C [26]: 50.8%; viability, T/C [27]: 99%; viability, T/C [28]: 46%; viability, T/C [29]: 63.9%; viability, T/C [30]: 51.9%
